# Measurements from PubChem BioAssay (NCI).
#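 Tested at 5 concentrations; 48 h exposure; 96-well plates; endpoints linearly interpolated, else capped at highest concentration. GI50 is the concentration that inhibits growth by half. TGI: concentration producing complete growth inhibition.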
# Legend:
# Test in all cases: NCI tumour cell line growth inhibition, 48 h
# SK-MEL-5 melanoma = tested on: SK-MEL-5 melanoma
# OVCAR-3 ovarian = tested on: OVCAR-3 ovarian
# ACHN renal = tested on: ACHN renal
# HOP-62 NSCLC = tested on: HOP-62 NSCLC
# UACC-257 melanoma = tested on: UACC-257 melanoma
# 786-0 renal = tested on: 786-0 renal
# A498 renal = tested on: A498 renal
# OVCAR-5 ovarian = tested on: OVCAR-5 ovarian
# HL-60(TB) leukemia = tested on: HL-60(TB) leukemia
# T-47D breast = tested on: T-47D breast
# SF-295 CNS = tested on: SF-295 CNS
# BT-549 breast = tested on: BT-549 breast
# UO-31 renal = tested on: UO-31 renal
# OVCAR-4 ovarian = tested on: OVCAR-4 ovarian
# RXF 393 renal = tested on: RXF 393 renal
# K-562 leukemia = tested on: K-562 leukemia
# CAKI-1 renal = tested on: CAKI-1 renal
# DU-145 prostate = tested on: DU-145 prostate
# MDA-MB-468 breast = tested on: MDA-MB-468 breast
# OVCAR-8 ovarian = tested on: OVCAR-8 ovarian
# HOP-92 NSCLC = tested on: HOP-92 NSCLC
# SW-620 colon = tested on: SW-620 colon
# SF-539 CNS = tested on: SF-539 CNS
# MDA-MB-231 breast = tested on: MDA-MB-231 breast
# HS 578T breast = tested on: HS 578T breast
# M14 melanoma = tested on: M14 melanoma
# HCT-15 colon = tested on: HCT-15 colon
# U251 CNS = tested on: U251 CNS
# SK-MEL-28 melanoma = tested on: SK-MEL-28 melanoma
# IGROV1 ovarian = tested on: IGROV1 ovarian
# SF-268 CNS = tested on: SF-268 CNS
# NCI/ADR-RES ovarian = tested on: NCI/ADR-RES ovarian
# SNB-75 CNS = tested on: SNB-75 CNS
# A549 NSCLC = tested on: A549 NSCLC
# NCI-H522 lung = tested on: NCI-H522 lung
# HCT-116 colon = tested on: HCT-116 colon
# LOX IMVI melanoma = tested on: LOX IMVI melanoma
# SN12C renal = tested on: SN12C renal
# NCI-H460 lung = tested on: NCI-H460 lung
# PC-3 prostate = tested on: PC-3 prostate
# SNB-19 CNS = tested on: SNB-19 CNS
# COLO 205 colon = tested on: COLO 205 colon
# CCRF-CEM leukemia = tested on: CCRF-CEM leukemia
# MOLT-4 leukemia = tested on: MOLT-4 leukemia
# KM12 colon = tested on: KM12 colon
# EKVX NSCLC = tested on: EKVX NSCLC
# HT29 colon = tested on: HT29 colon
# NCI-H226 lung = tested on: NCI-H226 lung
# NCI-H23 lung = tested on: NCI-H23 lung
# UACC-62 melanoma = tested on: UACC-62 melanoma
# SK-OV-3 ovarian = tested on: SK-OV-3 ovarian
# MDA-MB-435 = tested on: MDA-MB-435
# HCC-2998 colon = tested on: HCC-2998 colon
# MALME-3M melanoma = tested on: MALME-3M melanoma
# MCF7 breast = tested on: MCF7 breast
# SK-MEL-2 melanoma = tested on: SK-MEL-2 melanoma
# TK-10 renal = tested on: TK-10 renal
# RPMI-8226 leukemia = tested on: RPMI-8226 leukemia
smiles,measurement,setting,value
CC(=O)/C=C/c1cccc2c1C(=O)NC(C)(c1cc3cc(Br)ccc3oc1=O)N2 (stereo unspecified),GI50,SK-MEL-5 melanoma,9.78 µM
same,TGI,SK-MEL-5 melanoma,21.6 µM
same,GI50,OVCAR-3 ovarian,7.56 µM
same,TGI,OVCAR-3 ovarian,24.7 µM
same,GI50,ACHN renal,5.02 µM
same,TGI,ACHN renal,> 100 µM
same,GI50,HOP-62 NSCLC,15.7 µM
same,TGI,HOP-62 NSCLC,44 µM
same,GI50,UACC-257 melanoma,10.4 µM
same,TGI,UACC-257 melanoma,26.2 µM
same,GI50,786-0 renal,13.4 µM
same,TGI,786-0 renal,32 µM
same,GI50,A498 renal,28.1 µM
same,TGI,A498 renal,> 100 µM
same,GI50,OVCAR-5 ovarian,15.6 µM
same,TGI,OVCAR-5 ovarian,38.3 µM
same,GI50,HL-60(TB) leukemia,5.61 µM
same,TGI,HL-60(TB) leukemia,> 100 µM
same,GI50,T-47D breast,11.5 µM
same,TGI,T-47D breast,64 µM
same,GI50,SF-295 CNS,11.1 µM
same,TGI,SF-295 CNS,25.4 µM
same,GI50,BT-549 breast,4.78 µM
same,TGI,BT-549 breast,18.9 µM
same,GI50,UO-31 renal,3.59 µM
same,TGI,UO-31 renal,19.1 µM
same,GI50,OVCAR-4 ovarian,11.5 µM
same,TGI,OVCAR-4 ovarian,> 100 µM
same,GI50,RXF 393 renal,2.33 µM
same,TGI,RXF 393 renal,10.7 µM
same,GI50,K-562 leukemia,4.67 µM
same,TGI,K-562 leukemia,> 100 µM
same,GI50,CAKI-1 renal,3.87 µM
same,TGI,CAKI-1 renal,28.5 µM
same,GI50,DU-145 prostate,8.98 µM
same,TGI,DU-145 prostate,22.3 µM
same,GI50,MDA-MB-468 breast,4.28 µM
same,TGI,MDA-MB-468 breast,19 µM
same,GI50,OVCAR-8 ovarian,10.1 µM
same,TGI,OVCAR-8 ovarian,> 100 µM
same,GI50,HOP-92 NSCLC,2.19 µM
same,TGI,HOP-92 NSCLC,18 µM
same,GI50,SW-620 colon,19.5 µM
same,TGI,SW-620 colon,> 100 µM
same,GI50,SF-539 CNS,8.67 µM
same,TGI,SF-539 CNS,22.3 µM
same,GI50,MDA-MB-231 breast,7.35 µM
same,TGI,MDA-MB-231 breast,39.6 µM
same,GI50,HS 578T breast,17.2 µM
same,TGI,HS 578T breast,> 100 µM
same,GI50,M14 melanoma,9.29 µM
same,TGI,M14 melanoma,25.3 µM
same,GI50,HCT-15 colon,10.6 µM
same,TGI,HCT-15 colon,32.4 µM
same,GI50,U251 CNS,12.1 µM
same,TGI,U251 CNS,25.5 µM
same,GI50,SK-MEL-28 melanoma,13.7 µM
same,TGI,SK-MEL-28 melanoma,27.8 µM
same,GI50,IGROV1 ovarian,8.12 µM
same,TGI,IGROV1 ovarian,32.9 µM
same,GI50,SF-268 CNS,12.4 µM
same,TGI,SF-268 CNS,48.3 µM
same,GI50,NCI/ADR-RES ovarian,15 µM
same,TGI,NCI/ADR-RES ovarian,44.5 µM
same,GI50,SNB-75 CNS,1.3 µM
same,TGI,SNB-75 CNS,19.3 µM
same,GI50,A549 NSCLC,23.5 µM
same,TGI,A549 NSCLC,> 100 µM
same,GI50,NCI-H522 lung,13.6 µM
same,TGI,NCI-H522 lung,28.8 µM
same,GI50,HCT-116 colon,7.13 µM
same,TGI,HCT-116 colon,21.3 µM
same,GI50,LOX IMVI melanoma,10.1 µM
same,TGI,LOX IMVI melanoma,22 µM
same,GI50,SN12C renal,6.57 µM
same,TGI,SN12C renal,24.6 µM
same,GI50,NCI-H460 lung,15.7 µM
same,TGI,NCI-H460 lung,67.6 µM
same,GI50,PC-3 prostate,5.95 µM
same,TGI,PC-3 prostate,39.1 µM
same,GI50,SNB-19 CNS,12.5 µM
same,TGI,SNB-19 CNS,25.1 µM
same,GI50,COLO 205 colon,19.6 µM
same,TGI,COLO 205 colon,40.9 µM
same,GI50,CCRF-CEM leukemia,4.87 µM
same,TGI,CCRF-CEM leukemia,56.7 µM
same,GI50,MOLT-4 leukemia,8.47 µM
same,TGI,MOLT-4 leukemia,> 100 µM
same,GI50,KM12 colon,12.4 µM
same,TGI,KM12 colon,30.8 µM
same,GI50,EKVX NSCLC,7.36 µM
same,TGI,EKVX NSCLC,21 µM
same,GI50,HT29 colon,20.7 µM
same,TGI,HT29 colon,73.6 µM
same,GI50,NCI-H226 lung,13.6 µM
same,TGI,NCI-H226 lung,58.6 µM
same,GI50,NCI-H23 lung,11.9 µM
same,TGI,NCI-H23 lung,26.4 µM
same,GI50,UACC-62 melanoma,7.01 µM
same,TGI,UACC-62 melanoma,21.3 µM
same,GI50,SK-OV-3 ovarian,25.2 µM
same,TGI,SK-OV-3 ovarian,> 100 µM
same,GI50,MDA-MB-435,10.6 µM
same,TGI,MDA-MB-435,30.9 µM
same,GI50,HCC-2998 colon,15.1 µM
same,TGI,HCC-2998 colon,28.6 µM
same,GI50,MALME-3M melanoma,11.4 µM
same,TGI,MALME-3M melanoma,29.9 µM
same,GI50,MCF7 breast,10.7 µM
same,TGI,MCF7 breast,32.4 µM
same,GI50,SK-MEL-2 melanoma,10.2 µM
same,TGI,SK-MEL-2 melanoma,27.3 µM
same,GI50,TK-10 renal,24.5 µM
same,TGI,TK-10 renal,89.6 µM
same,GI50,RPMI-8226 leukemia,4.04 µM
same,TGI,RPMI-8226 leukemia,33.8 µM
